Measurements taken from patent US7192922B2, “Method of treating left ventricular dysfunction” (Allegheny-Singer Research Institute, priority 2002, dated 2007).
Where two headings read alike, the source gives them in different places.

Legend:
[1] = tested on: normal dogs and dogs with advanced dilated cardiomyopathy; experiment: Acute graded infusion, hemodynamic effects in conscious chronically instrumented dogs; format: in vivo, dog; settings: for effects on left ventricular pressure, left ventricular dP/dt, cardiac output, heart rate: graded infusions for ten minutes, six normal dogs and six dogs with advanced DCM
Description: FIGS. 2a–2d show the dose response to rGLP-1 in normal conscious dogs and conscious dogs with advanced DCM compared to the response to the sympathomimetic, dobutamine.
FIG. 1 illustrates characteristic instrumentation of conscious, chronically instrumented dogs studied in the laboratory. Under sterile surgical technique, the animals are instrumented as indicated and allowed to recover fully from their surgery. At the time, they are taught to lie quietly on the experimental table before study. To determine if acute GLP-1 (7–36 amide) infusion is associated with hemodynamic effects in conscious chronically instrumented dogs, graded infusions for ten minutes at doses of 1.25, 2.5, 5, 10 and 20 pmol/kg/min in six normal dogs and in six dogs with advanced dilated cardiomyopathy were studied. The response of the graded infusion to the classic iontopic agent, Dobutamine, (2.5, 5, 7.5, 10 and 15 μ/kg/min.) was compared. […] Nikolaidis, L A, Hentosz, T, Doverspike, A, et al., “Catecholamine stimulation is associated with impaired myocardial O2 utilization in heart failure,” Cardiovas. Res., 2002;53:392–404, incorporated by reference herein.

[2] = tested on: myocardial substrate uptake; experiment: Myocardial substrate uptake and metabolic parameters in dogs with advanced DCM, 48 h infusion (Table 1); format: in vivo, dog; settings: for Glucose myocardial uptake / Lactate myocardial uptake / NE (transmyocardial norepinephrine uptake) / NEFA myocardial uptake: GLP-1 group (n = 9); for Insulin/Glucagon: ratio insulin (pmol/L) to glucagon (pg/ml), GLP-1 group
Procedure: (§1) A 48 hour continuous intravenous infusion of GLP-1 (7–36 amide), (1.5 pmol/kg/min) in five normal dogs to determine the hemodynamic effect of chronic infusion in the absence of dilated cardiomyopathy was conducted. […] FIGS. 3–5 illustrates the effects of GLP-1 (7–36 amide) infusion (1.5 pmol/kg/min) intravenously for 48 hours in 20 conscious, chronically instrumented animals with advanced heart failure. These effects have been compared to similarly instrumented animals with advanced heart failure that received a control saline infusion of equal volume ([…]) illustrate the hemodynamic effects of chronic GLP-1 infusion in advanced DCM. GLP-1 (7–36 amide) infusion was associated with a restoration of left ventricular pressure, improvement in contractility, improvement in cardiac output, and reduction in heart rate and LVEDP. […] GLP-1 was associated with restoration of endothelial dependent vaso dilatation response to acetylcholine (FIG. 7). […] GLP-1 had little effect on increased plasma insulin levels in the setting of euglycemia.

normal dogs = experiment: 48 hour continuous intravenous infusion, hemodynamic effect in normal dogs; format: in vivo, dog; settings: 1.5 pmol/kg/min i.v. 48 hours; five normal dogs
Procedure: as §1

[3] = tested on: conscious dogs with advanced DCM; experiment: 48 hour intravenous infusion, hemodynamics and myocardial sympathetic activity in conscious dogs with advanced heart failure (DCM); format: in vivo, dog
Description: FIGS. 3a–3d show the effects of r GLP-1 on LV systolic pressure, LV end diastolic pressure, LV dP/dt, and heart rate in conscious dogs with advanced DCM compared to saline control.
FIGS. 4a–4d show the effects of rGLP-1 on cardiac output, stroke volume, LV ejection fraction, systemic vascular resistance in conscious dogs with advanced DCM compared to saline control.
FIGS. 5a and 5b show the effects of rGLP-1 on stroke work and LV external efficiency in conscious dogs with advanced DCM compared to saline control.
FIGS. 6a and 6b show the effects of rGLP-1 on transmyocardial norepinephrine uptake as a reflection of sympathetic drive to the myocardium in conscious dogs with advanced DCM compared to saline controls.
as §1

[4] = tested on: endothelial dependent coronary vasodilation; experiment: Coronary flow responses to acetylcholine and nitroglycerin in conscious dogs with advanced DCM after 48-hour infusion; format: in vivo, dog
Procedure: FIGS. 7a and 7b show the effects of rGLP-1 on endothelial dependent coronary vasodilation in conscious dogs. Advanced DCM was associated with impaired coronary flow responses to acetylcholine. These responses were restored following 48-hour infusion of rGLP-1. The response to the non-endothelial dependent vasodilator, nitroglycerin was unaffected.
as §1

plasma insulin = settings: cited from earlier work; for plasma insulin levels: GIP 2.0, GLP-1 1.5 pmol·kg−1·min−1
[5] = tested on: patients with large myocardial infarction (LVEF<35%); experiment: 72 hour continuous intravenous infusion in adults with severe acute myocardial infarction, LV function; format: in vivo, human; settings: 1.5 pmol/kg/min i.v. 72 hours after percutaneous coronary intervention; ten adults vs eleven on standard care
Procedure: The effects of continuous intravenous infusion of GLP-1 (1.5 pmol/kg/min) intravenously for 72 hours was studied in ten adults presenting with severe acute myocardial infarction. These were compared to eleven adults with similar large myocardial infarction (LVEF<35%) all of whom underwent percutaneous coronary intervention and subsequently were treated for 72 hours thereafter.

restrained rats = settings: rat, in vivo, sc; cited from earlier work
[6] = Baseline (before CHF and infusion)
[7] = advanced DCM, vs saline controls
[8] = 1.5 pmol/kg/min i.v. 48 hours, vs saline
[9] = hyperglycemia 10.4 mmol/l, hyperglycemia alone ~280 pmol/l
[10] = hyperglycemia 187 mg/dl, hyperglycemia alone 47 μU/ml

## CC(CCc1ccc(O)cc1)NCCc1ccc(O)c(O)c1 (centres unmarked) [Dobutamine]
[1]; dogs with heart failure (advanced DCM), graded infusion
  hemodynamic effects of graded infusion, heart failure: de-sensitized effects
[1]; normal dogs, graded infusion
  hemodynamic effects of graded infusion, normal dogs: predictable effects

## GLP-1 (7–36 amide)
[1]
  effects on left ventricular pressure, left ventricular dP/dt, cardiac output, heart rate: no significant, dose related effects
[1]; listed as rGLP-1
  effects on left ventricular pressure, left ventricular dP/dt, cardiac output, heart rate: no acute hemodynamic effects
[2]; 24 hrs of infusion
  Glucose myocardial uptake: 8.72 ± 1.05 µmol/min
  Lactate myocardial uptake: 3.61 ± 0.62 µmol/min
  NE (transmyocardial norepinephrine uptake): 26.3 ± 3.1 pmol/min
  NEFA myocardial uptake: 4.53 ± 0.58 µmol/min
[2]; 48 hrs of infusion
  Glucose myocardial uptake: 7.00 ± 0.94 µmol/min
  Lactate myocardial uptake: 4.04 ± 0.74 µmol/min
  NE (transmyocardial norepinephrine uptake): 30.5 ± 4.9 pmol/min
  NEFA myocardial uptake: 5.16 ± 0.73 µmol/min
  Insulin/Glucagon: 3.12 ± 0.24
[2]; [6]
  Glucose myocardial uptake: 6.67 ± 1.22 µmol/min
  Lactate myocardial uptake: 4.78 ± 1.04 µmol/min
  NE (transmyocardial norepinephrine uptake): 30.9 ± 4.8 pmol/min
  NEFA myocardial uptake: 5.23 ± 0.83 µmol/min
  Insulin/Glucagon: 1.36 ± 0.21
[2]; CHF (before infusion)
  Glucose myocardial uptake: 3.44 ± 0.81 µmol/min
  Lactate myocardial uptake: 2.64 ± 0.91 µmol/min
  NE (transmyocardial norepinephrine uptake): 18.7 ± 3.6 pmol/min
  NEFA myocardial uptake: 3.17 ± 0.61 µmol/min
  Insulin/Glucagon: 1.79 ± 0.29
[2]; [7]
  myocardial glucose uptake: enhanced
  ratio of insulin (pmol/L) to glucagon (pg/ml): significant increase
[2]; setting of euglycemia, advanced DCM
  plasma insulin levels: little effect
Normal dogs
  hemodynamic effects of chronic infusion: no significant hemodynamic effects
[3]; [8]
  LVEDP: reduction
  cardiac output: improvement
  contractility: improvement
  heart rate: reduction
  left ventricular pressure: restoration
[3]; infusion compared to saline
  myocardial sympathetic activity: suppression
[4]
  endothelial dependent vasodilatation (coronary flow) response to acetylcholine: restoration
  response to the non-endothelial dependent vasodilator nitroglycerin: unaffected
[4]; listed as rGLP-1
  endothelial dependent vasodilatation (coronary flow) response to acetylcholine: restored
Plasma insulin; [9]
  plasma insulin levels: ~2000 pmol/L
Plasma insulin; [10]
  plasma insulin levels: 333 μU/ml
Plasma insulin; hyperglycemia, infusion
  relative potency as incretin: more potent than GIP
[5]
  left ventricular function: improvement

## exendin-4 [excendin 4]
Restrained rats
  blood pressure and heart rate: hypertension and tachycardia

## glucose-dependent insulinotropic polypeptide [GIP]
Plasma insulin; [9]
  plasma insulin levels: ~900 pmol/L
Plasma insulin; [10]
  plasma insulin levels: 150 μU/ml
Plasma insulin; normal subjects, euglycemia
  insulinotropic action during euglycemia: not
